Bridge positions count the residues as written; N and C are the ends. Ends that are not written are not given here. Peptide text beside a SMILES is read from it.

The results in this text go back to patent US7067619B2, “Integrin-binding peptides” (La Jolla Cancer Research Foundation, priority 1993, dated 2006).

One assay addresses αvβ5 integrin (Homo sapiens, UniProt P06756+P18084). Nature of the assay: Inhibition of peptide-displaying phage binding to αvβ5 integrin by synthetic peptides. Also noted: The αvβ3, αvβ5 and α5β1 integrins were isolated from human placental extracts; from tissue; host or cells: human placenta. To be noted: more potent than *CRGDC*; FIG. 10. How it is done:
Phage containing the […] [SEQ ID NO:10] sequence were incubated for 1 hour in integrin-coated wells in the presence of the competing peptides or dimethyl sulfoxide solvent as a control. The bound phage were determined as described herein.
(§1) In addition, most of the phage-binding activity in the αvβ3 preparation was captured into microliter wells coated with antibodies against the αv or β3 subunits as described previously (Koivunen et al., J. Biol. Chem., 268:20205–10 (1993). The αIIbβ3 integrin was isolated from outdated platelets (Pytela et al., Science, 231:1559–1562 (1986)).
Binding of individual cloned phage to integrins was studied in microliter wells as described in Koivunen et al., J. Cell. Biol., 124:373–380 (1994). Phage binding to α5β1 and αvβ3 were assayed in TBS buffer containing 1% BSA and 1 mM MnCl2 and binding to αvβ5 in the presence of 1 mM CaCl2. Phage that were bound were determined by their ability to infect F-pilus positive K91kan bacteria. Bacteria were grown overnight in microliter wells in the presence of tetracycline and the absorbance indicative of bacterial growth was read at 600 nm with an ELISA plate reader.

The next assay deals with αvβ3 integrin (Homo sapiens, UniProt P05106+P06756). Nature of the assay: Panning and binding of peptide-displaying phage on αvβ3 integrin. Also noted: The αvβ3, αvβ5 and α5β1 integrins were isolated from human placental extracts; from tissue; host or cells: human placenta. Particulars: phage-displayed sequence.
Text: as §1
Peptide libraries were constructed in fuse 5 vector (Scott and Smith, Science 249:386–390 (1990)) as described previously (Koivunen et al., J. Cell Biol., 124:373–380 (1994). The CX5C, CX6C, CX7C and CX9 [SEQ ID NOs:39–42, respectively] libraries were prepared using synthetic oligonucleotides containing core sequences TGT(NNK)5TGT, TGT(NNK)6TGT, TGT(NNK)7TGT and TGT(NNK)9 [SEQ ID NOS:43–46, respectively] (N=equal molar mixture of A, C, G, T; K=G or T), respectively. The oligonucleotides were made double-stranded by PCR amplification with 5 cycles, purified and ligated to the N-terminus of pIII gene of fuse 5 vector. […]
Binding of individual cloned phage to integrins was studied in microliter wells as described in Koivunen et al., J. Cell. […] Phage that were bound were determined by their ability to infect F-pilus positive K91kan bacteria. Bacteria were grown overnight in microliter wells in the presence of tetracycline and the absorbance indicative of bacterial growth was read at 600 nm with an ELISA plate reader.

For the next assay, the target named is T1, α5β1 integrin (Mus musculus, UniProt P09055+P11688).
T1 construct: CHO cells C11 and NIH 3T3 cells express the endogenous Chinese hamster and mouse α5β1 integrins, respectively; endogenous in cells; host or cells: NIH 3T3 cells
Put plainly: Inhibition of attachment of NIH 3T3 cells to fibronectin. The assay is classed as cell-based. Particulars: mouse NIH 3T3 cells. The source says:
Cell lines expressing different integrins were used to examine peptide inhibition of integrin function. A human melanoma cell line, C8161, a fibroblast cell line, WI-38, and an osteosarcoma cell line, MG-63 (described by Seftor et al., Canc. Res., 53:3411–3415 (1993); Vogel et al., J. Biol. Chem., 265:5934–5937 (1990); and Pytela et al. (1985), supra, respectively, each of which is incorporated herein by reference) attach to fibronectin through α5β1 integrin, as does B2/α27, a CHO cell line transfected with human α5. B2/C1, the control parental CHO line (Bauer et al., J. Cell. Biol. 116:477–487 (1992), which is incorporated herein by reference), attaches via […]. CHO cells C11 and NIH 3T3 cells express the endogenous Chinese hamster and mouse α5β1 integrins, respectively. The human melanoma cells, A375-M, attach to fibronectin through both α5β1 and α4β1 integrins (Mould et al., J. Biol. Chem. 265:4020–4024 (1990), which is incorporated herein by reference). CHO cell line B2/v7 express the αvβ1 integrin (Zhang et al., J. Cell. Biol. 122:235–242 (1993), which is incorporated herein by reference). […]
Cell lines expressing fibronectin-binding integrins were used to determine peptide activities against these integrins in the cell attachment assay described by Ruoslahti et al., Meth. […] Bound cells were quantitated by staining with 0.1% amido black.

αvβ5 integrin, sequence (P06756 31-889 limits assumed): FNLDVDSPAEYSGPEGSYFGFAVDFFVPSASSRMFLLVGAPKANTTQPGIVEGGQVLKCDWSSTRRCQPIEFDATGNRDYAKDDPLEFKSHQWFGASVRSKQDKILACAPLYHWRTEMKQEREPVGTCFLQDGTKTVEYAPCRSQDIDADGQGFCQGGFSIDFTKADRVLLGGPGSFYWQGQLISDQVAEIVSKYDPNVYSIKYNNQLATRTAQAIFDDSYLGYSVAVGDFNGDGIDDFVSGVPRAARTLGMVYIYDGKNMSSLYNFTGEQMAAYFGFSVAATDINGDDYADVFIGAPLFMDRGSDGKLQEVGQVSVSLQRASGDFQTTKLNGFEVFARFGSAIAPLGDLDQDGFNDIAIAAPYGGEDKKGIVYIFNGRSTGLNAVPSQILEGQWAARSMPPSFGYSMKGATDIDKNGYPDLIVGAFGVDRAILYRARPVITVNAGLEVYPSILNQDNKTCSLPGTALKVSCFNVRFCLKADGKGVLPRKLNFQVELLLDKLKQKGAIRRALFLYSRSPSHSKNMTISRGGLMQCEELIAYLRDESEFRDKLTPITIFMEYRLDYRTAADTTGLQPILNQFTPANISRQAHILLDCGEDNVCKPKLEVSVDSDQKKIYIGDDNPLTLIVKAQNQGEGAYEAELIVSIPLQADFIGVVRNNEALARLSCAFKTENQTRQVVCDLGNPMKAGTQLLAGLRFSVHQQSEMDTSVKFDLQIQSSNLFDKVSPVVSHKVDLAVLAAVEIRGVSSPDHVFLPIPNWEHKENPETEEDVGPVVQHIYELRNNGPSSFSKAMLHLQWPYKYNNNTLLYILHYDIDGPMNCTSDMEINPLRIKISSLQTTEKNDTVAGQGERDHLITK
αvβ5 integrin, sequence (P06756 891-1048 partner limits assumed): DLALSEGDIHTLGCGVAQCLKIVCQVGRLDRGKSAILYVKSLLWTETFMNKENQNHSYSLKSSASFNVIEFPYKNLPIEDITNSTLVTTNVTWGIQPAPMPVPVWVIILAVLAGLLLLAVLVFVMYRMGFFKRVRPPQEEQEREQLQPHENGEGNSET
αvβ5 integrin, sequence (P18084 24-799): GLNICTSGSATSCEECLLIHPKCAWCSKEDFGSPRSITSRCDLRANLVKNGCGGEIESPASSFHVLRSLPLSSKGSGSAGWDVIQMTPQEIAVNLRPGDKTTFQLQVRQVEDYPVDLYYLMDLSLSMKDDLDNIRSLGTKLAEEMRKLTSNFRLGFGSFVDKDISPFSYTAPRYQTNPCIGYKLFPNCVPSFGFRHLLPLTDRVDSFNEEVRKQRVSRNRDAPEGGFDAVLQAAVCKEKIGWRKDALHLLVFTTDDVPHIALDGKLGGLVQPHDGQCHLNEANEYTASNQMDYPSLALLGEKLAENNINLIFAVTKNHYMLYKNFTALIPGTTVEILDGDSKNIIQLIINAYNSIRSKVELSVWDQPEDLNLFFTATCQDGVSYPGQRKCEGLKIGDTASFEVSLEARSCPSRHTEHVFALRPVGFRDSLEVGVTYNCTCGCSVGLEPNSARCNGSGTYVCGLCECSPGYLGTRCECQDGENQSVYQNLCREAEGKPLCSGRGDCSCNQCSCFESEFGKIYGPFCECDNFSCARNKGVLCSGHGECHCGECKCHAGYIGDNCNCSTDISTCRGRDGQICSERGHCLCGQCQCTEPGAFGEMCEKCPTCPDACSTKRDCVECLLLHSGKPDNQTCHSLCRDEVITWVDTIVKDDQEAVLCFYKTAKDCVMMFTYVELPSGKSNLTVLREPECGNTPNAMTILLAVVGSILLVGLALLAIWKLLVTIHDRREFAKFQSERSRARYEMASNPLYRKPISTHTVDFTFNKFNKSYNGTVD
αvβ3 integrin, sequence (P06756 31-889 limits assumed): as the sequence (P06756 31-889 limits assumed) above
αvβ3 integrin, sequence (P06756 891-1048 partner limits assumed): as the sequence (P06756 891-1048 partner limits assumed) above
αvβ3 integrin, sequence (P05106 27-788): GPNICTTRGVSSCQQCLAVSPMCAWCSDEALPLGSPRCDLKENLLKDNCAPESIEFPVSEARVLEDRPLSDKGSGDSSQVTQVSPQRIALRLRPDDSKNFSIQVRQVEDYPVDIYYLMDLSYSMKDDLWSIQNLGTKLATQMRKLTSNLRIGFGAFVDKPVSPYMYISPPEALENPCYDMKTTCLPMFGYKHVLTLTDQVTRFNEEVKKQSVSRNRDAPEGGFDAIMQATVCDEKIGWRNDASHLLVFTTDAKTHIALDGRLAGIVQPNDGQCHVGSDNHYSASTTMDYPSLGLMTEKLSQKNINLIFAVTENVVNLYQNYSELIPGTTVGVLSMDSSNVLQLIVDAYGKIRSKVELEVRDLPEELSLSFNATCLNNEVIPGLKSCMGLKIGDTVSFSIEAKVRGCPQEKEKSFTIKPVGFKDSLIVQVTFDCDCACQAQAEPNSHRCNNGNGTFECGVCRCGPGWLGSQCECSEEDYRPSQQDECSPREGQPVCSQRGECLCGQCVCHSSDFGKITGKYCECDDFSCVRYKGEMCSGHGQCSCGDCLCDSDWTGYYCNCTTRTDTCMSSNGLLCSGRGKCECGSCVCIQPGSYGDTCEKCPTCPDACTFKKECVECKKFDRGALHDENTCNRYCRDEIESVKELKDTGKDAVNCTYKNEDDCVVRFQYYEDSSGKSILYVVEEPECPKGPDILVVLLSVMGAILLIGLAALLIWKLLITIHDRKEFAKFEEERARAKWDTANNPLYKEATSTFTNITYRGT
T1 sequence (P11688 45-898 limits assumed): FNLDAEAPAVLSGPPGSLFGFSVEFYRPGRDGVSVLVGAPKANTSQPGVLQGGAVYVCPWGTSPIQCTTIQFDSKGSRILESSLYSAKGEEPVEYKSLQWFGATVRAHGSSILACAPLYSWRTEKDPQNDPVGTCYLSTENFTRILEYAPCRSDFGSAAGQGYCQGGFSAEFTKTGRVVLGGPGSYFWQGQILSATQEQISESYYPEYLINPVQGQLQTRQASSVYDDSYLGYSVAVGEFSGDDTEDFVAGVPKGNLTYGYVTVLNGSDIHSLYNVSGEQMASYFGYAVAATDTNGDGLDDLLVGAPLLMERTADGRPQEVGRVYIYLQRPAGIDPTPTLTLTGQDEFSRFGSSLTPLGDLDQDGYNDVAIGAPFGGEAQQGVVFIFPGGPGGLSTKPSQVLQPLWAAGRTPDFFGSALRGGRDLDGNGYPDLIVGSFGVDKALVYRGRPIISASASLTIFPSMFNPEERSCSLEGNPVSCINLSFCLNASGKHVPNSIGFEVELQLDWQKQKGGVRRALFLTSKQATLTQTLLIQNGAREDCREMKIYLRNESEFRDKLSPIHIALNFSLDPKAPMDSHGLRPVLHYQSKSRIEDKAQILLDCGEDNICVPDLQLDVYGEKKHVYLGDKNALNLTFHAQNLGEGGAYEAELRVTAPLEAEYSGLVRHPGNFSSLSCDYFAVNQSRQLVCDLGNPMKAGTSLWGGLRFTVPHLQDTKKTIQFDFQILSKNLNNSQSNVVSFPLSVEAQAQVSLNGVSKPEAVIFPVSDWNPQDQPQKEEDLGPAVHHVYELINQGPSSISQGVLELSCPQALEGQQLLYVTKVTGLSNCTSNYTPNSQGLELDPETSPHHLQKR
T1 sequence (P11688 899-1053 partner limits assumed): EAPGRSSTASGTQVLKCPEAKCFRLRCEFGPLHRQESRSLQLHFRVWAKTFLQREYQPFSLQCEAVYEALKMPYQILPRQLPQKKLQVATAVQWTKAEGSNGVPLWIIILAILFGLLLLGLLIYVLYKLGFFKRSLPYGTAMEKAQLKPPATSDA
T1 sequence (P09055 21-798): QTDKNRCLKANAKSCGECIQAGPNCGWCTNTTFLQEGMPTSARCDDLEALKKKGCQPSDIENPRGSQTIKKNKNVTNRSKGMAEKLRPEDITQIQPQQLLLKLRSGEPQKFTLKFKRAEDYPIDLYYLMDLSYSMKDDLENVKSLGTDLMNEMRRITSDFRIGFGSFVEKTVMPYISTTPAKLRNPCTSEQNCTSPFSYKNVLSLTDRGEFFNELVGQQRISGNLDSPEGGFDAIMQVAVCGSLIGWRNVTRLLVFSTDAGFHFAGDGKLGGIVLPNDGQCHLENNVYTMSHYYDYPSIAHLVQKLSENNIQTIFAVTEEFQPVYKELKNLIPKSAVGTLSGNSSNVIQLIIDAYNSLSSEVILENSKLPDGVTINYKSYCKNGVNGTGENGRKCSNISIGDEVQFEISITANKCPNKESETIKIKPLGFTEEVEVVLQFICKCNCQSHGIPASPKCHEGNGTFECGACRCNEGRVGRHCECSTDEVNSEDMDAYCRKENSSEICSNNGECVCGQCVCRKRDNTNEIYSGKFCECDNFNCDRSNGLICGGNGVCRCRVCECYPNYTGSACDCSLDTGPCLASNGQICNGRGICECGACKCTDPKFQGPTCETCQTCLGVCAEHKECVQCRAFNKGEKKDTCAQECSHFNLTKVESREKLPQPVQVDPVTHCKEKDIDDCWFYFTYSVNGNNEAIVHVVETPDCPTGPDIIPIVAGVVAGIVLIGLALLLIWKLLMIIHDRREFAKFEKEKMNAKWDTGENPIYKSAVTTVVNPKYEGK

Turning to `C[C@H](N)C(=O)N[C@H]1CSSC[C@@H](C(=O)NCC(=O)O)NC(=O)[C@H](Cc2ccccc2)NC(=O)[C@@H]2CSSC[C@H](NC(=O)[C@H](CC(=O)O)NC1=O)C(=O)N[C@@H](CCCNC(=N)N)C(=O)NCC(=O)N[C@@H](CC(=O)O)C(=O)N2` (H-ACDCRGDCFCG-OH; disulfide 2-10, 4-8), the “potency in inhibiting binding of RGD-containing phage to αvβ5 relative to *CRGDC*” value at αvβ5 integrin is 10 fold.
For the compound “A*CPSRLDSPC*G (ACPSRLDSPCG; disulfide 2-10 (inferred))”, the “binding of peptide-displaying phage to the αvβ3 integrin” value in the assay with αvβ3 integrin is “bound to αvβ3”.
Consider GACRRETAWACGA, for which the “blocking of attachment of NIH 3T3 cells to fibronectin” value at α5β1 integrin is listed as “could not block”.
